Patent US11986526B2, “Liquid protein formulations containing 4-ethyl-4-methylmorpholinium methylcarbonate (EMMC)” (Eagle Biologics, Inc., priority 2013, dated 2024)
“And” between values parts separate entries of the source, which are not always exact repeats. Equal values may be shown once.

Assays:
[1] = tested on: aqueous solutions of biosimilar AVASTIN®; test: Viscosity of concentrated aqueous solutions of biosimilar AVASTIN with ionic liquids (mVROC microfluidic viscometer); format: physicochemical; settings: 25° C., pH 7
Description: (§1) All viscosities of well-mixed aqueous mAb solutions were measured using either a mVROC microfluidic viscometer (RheoSense) or a DV2T cone and plate viscometer (Brookfield; “C & P”) after a 5 minute equilibration at 25 °C (unless otherwise indicated). The mVROC viscometer was equipped with an “A” or “B” chip, each manufactured with a 50 micron channel. Typically, 0.10 mL of protein solution was back-loaded into a gastight microlab instrument syringe (Hamilton; 100 μL), affixed to the chip, and measured at multiple flow rates, approximately 20%, 40%, and 60% of the maximum pressure for each chip. […] An average absolute viscosity and standard deviation was then calculated from at least these three measurements. The C & P viscometer was equipped with a CPE40 or CPE52 spindle (cone angle of 0.8° and 3.0°, respectively) and 0.50 mL samples were measured at multiple shear rates between 2 and 400 s^−1. […] An extrapolated zero-shear viscosity was then determined from a plot of dynamic viscosity versus shear rate for the samples measured on a DV2T cone and plate viscometer. The extrapolated zero-shear viscosities reported are the average and standard deviation of at least three measurements.
(§2) First, Polysorbate 20 was removed using DETERGENT-OUT® TWEEN Medi Columns (G-Biosciences). […] The dried protein cakes, containing protein and buffer salts or viscosity-reducing ionic liquid, were reconstituted to a final volume of approximately 0.10-1.30 mL. […] Then, an appropriate amount of viscosity-reducing ionic liquid solution (pH 7.0) was added to each aliquot such that upon reconstitution with water, the final excipient concentration was 0.1-0.5 M. The protein solutions were then freeze-dried. The dried protein cakes, containing protein and viscosity-reducing ionic liquid (and a negligible amount of buffer salts) were reconstituted to a final volume of approximately 0.1 mL and viscosity-reducing ionic liquid concentration as indicated in the tables below. The final concentration of mAb in solution was determined by light absorbance at 280 nm using an experimentally determined extinction coefficient of 1.7 L/g·cm and viscosities reported were measured on a RheoSense mVROC microfluidic viscometer.

[2] = tested on: aqueous solutions of HERCEPTIN®; test: Viscosity of concentrated aqueous solutions of HERCEPTIN with ionic liquids (mVROC microfluidic viscometer); format: physicochemical; settings: for Viscosity: 25° C., pH 7
Description: The protein was formulated either with phosphate buffer or with various viscosity-reducing ionic liquids at concentrations in the table listed below.

[3] = tested on: aqueous solutions of TYSABRI®; test: Viscosity of concentrated aqueous solutions of TYSABRI with excipients (mVROC microfluidic viscometer); format: physicochemical; settings: for Viscosity: 25° C., pH 7
Description: as §1
The dried protein cakes, containing protein and buffer salts or viscosity-reducing ionic liquid, were reconstituted to a final volume of approximately 0.10-1.30 mL. […] Then, an appropriate amount of viscosity-reducing ionic liquid solution (pH 7.0) was added to each aliquot such that upon reconstitution with water, the final excipient concentration was 0.1-0.5 M. The protein solutions were then freeze-dried. The dried protein cakes, containing protein and viscosity-reducing ionic liquid (and a negligible amount of buffer salts) were reconstituted to a final volume of approximately 0.1 mL and viscosity-reducing ionic liquid concentration as indicated in the tables below. The final concentration of mAb in solution was determined by light absorbance at 280 nm using an experimentally determined extinction coefficient of 1.7 L/g·cm and viscosities reported were measured on a RheoSense mVROC microfluidic viscometer.
(§3) Viscosities were measured using a RheoSense mVROC microfluidic viscometer equipped with an “A” or “B” chip.

[4] = tested on: aqueous solutions of VECTIBIX®; test: Viscosity of concentrated aqueous solutions of VECTIBIX with and without BIM (mVROC microfluidic viscometer); format: physicochemical; settings: 0.50M BIM, 25° C., pH 7
[5] = tested on: aqueous solutions of biosimilar RITUXAN®; test: Viscosity of concentrated aqueous solutions of biosimilar RITUXAN with BIM (mVROC microfluidic viscometer); format: physicochemical; settings: 25° C., pH 7
[6] = tested on: aqueous solutions of biosimilar ERBITUX®; test: Viscosity of concentrated aqueous solutions of biosimilar ERBITUX at various BIM concentrations (mVROC microfluidic viscometer); format: physicochemical; settings: for Viscosity: 25° C., pH 7
Description: All viscosities of well-mixed aqueous mAb solutions were measured using either a mVROC microfluidic viscometer (RheoSense) or a DV2T cone and plate viscometer (Brookfield; “C & P”) after a 5 minute equilibration at 25 °C (unless otherwise indicated). The mVROC viscometer was equipped with an “A” or “B” chip, each manufactured with a 50 micron channel. Typically, 0.10 mL of protein solution was back-loaded into a gastight microlab instrument syringe (Hamilton; 100 μL), affixed to the chip, and measured at multiple flow rates, approximately 20%, 40%, and 60% of the maximum pressure for each chip. […] An average absolute viscosity and standard deviation was then calculated from at least these three measurements. The C & P viscometer was equipped with a CPE40 or CPE52 spindle (cone angle of 0.8° and 3.0°, respectively) and 0.50 mL samples were measured at multiple shear rates between 2 and 400 s^−1. Specifically, samples were measured for 30 seconds each at 22.58, 24.38, 26.25, 28.13, 30, 31.88, 45, 67.5, 90, 112.5, 135, 157.5, 180, 202.5, 247, 270, 292.5, 315, 337.5, 360, 382, 400 s^−1, starting at a shear rate that gave at least 10% torque, and continuing until instrument torque reached 100%. An extrapolated zero-shear viscosity was then determined from a plot of dynamic viscosity versus shear rate for the samples measured on a DV2T cone and plate viscometer. The extrapolated zero-shear viscosities reported are the average and standard deviation of at least three measurements.
as §2, §3

Sprague-Dawley rats = test: Subcutaneous injection toxicity and irritation study (Draize evaluation scores, microscopic examination of injection sites); format: in vivo, rat
Description: Clinical observations were recorded for any pharmaco-toxicological signs at pre-dose, immediately post-dose, at 1 and 4 hours (±15 minutes) post-dose, and daily thereafter. Irritation, if any, at injection sites was scored using the Draize evaluation scores pre-dose, immediately post-dose, at 1 hour (±15 minutes) post dose, and prior to sacrifice.

[7] = tested on: aqueous solutions of REMICADE®; test: Viscosity of concentrated aqueous solutions of REMICADE with and without BIM (mVROC microfluidic viscometer); format: physicochemical
Description: A commercially-obtained biosimilar AVASTIN® containing pharmaceutical excipients (Polysorbate 20, phosphate and citrate buffers, mannitol, and NaCl) was purified. […] For samples containing 4-ethyl-4-methylmorpholinium methyl carbonate (EMMC), protein was thoroughly buffer exchanged into 2 mM PB (pH 7.0). For samples buffer exchanged into 20 mM PB (PB control samples) or 20 mM viscosity-reducing ionic liquid, the collected protein solution was freeze-dried. […] Samples buffer exchanged into 2 mM PB were first aliquoted.

[8] = tested on: respiratory syncytial virus infection; settings: two Phase III clinical trials, pediatric population; cited from earlier work
[9] = studies evaluating long-term clinical outcomes; cited from earlier work
[10] = [IL] 0.5 M, [Protein] 230 mg/mL

Compound: 4-ethyl-4-methylmorpholinium methylcarbonate [EMMC]
- Viscosity ([1]; [IL] 0.4 M, [Protein] 217 mg/mL): 38.7 ± 0.3 cP
- Viscosity reduction ([2]; 0.10 M EMMC): ~3 fold
- Viscosity ([2]; [IL] 0.10 M, [Protein] 253 mg/mL): 60.2 ± 4.3 cP
- Viscosity reduction ([3]; 0.10 M EMMC): up to 7 fold
- Viscosity ([3]; [IL] 0.1 M, [Protein] 232 mg/mL): 24.7 ± 0.3 cP

Compound: Cl.N=C(N)NCCC[C@H](N)C(=O)O [Arg HCl, Arginine-HCl, reference compound]
- Viscosity ([3]; [IL] 0.25 M, [Protein] 228 mg/mL): 37 ± 0.1 cP

Compound: CCCCn1cc[n+](CCCCS(=O)(=O)[O-])c1 [BIM, 4-(3-butyl-1-imidazolio)-1-butane sulfonate]
- Viscosity ([4]; VECTIBIX ® 233 ± 4 mg/mL): 51.1 ± 3.7 cP
- Viscosity ([4]; VECTIBIX ® 291 ± 3 mg/mL): 170 ± 2 cP
- Viscosity ([1]; [IL] 0.2 M, [Protein] 215 mg/mL): 61.8 ± 0.3 cP
- Viscosity ([1]; [IL] 0.4 M, [Protein] 215 mg/mL): 47.3 ± 2.3 cP
- Viscosity ([1]; [IL] 0.5 M, [Protein] 215 mg/mL): 41.9 ± 0.8 cP
- Viscosity ([2]; [IL] 0.40 M, [Protein] 223 mg/mL): 43.8 ± 0.4 cP
- Viscosity ([5]; 0.40M BIM, [Protein] 191 ± 2 mg/mL): 43.9 ± 1.6 cP
- Viscosity ([5]; 0.40M BIM, [Protein] 203 ± 4 mg/mL): 65.4 ± 0.4 cP
- Viscosity ([5]; 0.40M BIM, [Protein] 213 ± 4 mg/mL): 75.4 ± 1.0 cP
- Viscosity ([5]; 0.50M BIM, [Protein] 213 ± 4 mg/mL): 83.9 ± 0.8 cP
- Viscosity ([3]; [IL] 0.4 M, [Protein] 234 mg/mL): 43.6 ± 1.1 cP
- Viscosity ([6]; [BIM] 0.4 M, [biosimilar ERBITUX ®] 270 mg/mL): 86.7 ± 2.1 cP
- Viscosity ([6]; [BIM] 0.5 M, [biosimilar ERBITUX ®] 257 mg/mL): 75.0 ± 0.3 cP
- Viscosity ([6]; [BIM] 0.75 M, [biosimilar ERBITUX ®] 263 mg/mL): 148 ± 2 cP
- Viscosity ([6]; [BIM] 1.0 M, [biosimilar ERBITUX ®] 279 mg/mL): 145 ± 2 cP
- Viscosity ([6]; [BIM] […], [biosimilar ERBITUX ®] 267 mg/mL): 347 ± 5 cP
- Dependence of viscosity-lowering effect on BIM concentration ([6]; various concentrations of BIM, 0.3-[…]): dose dependent manner up to about 0.50 M
- Observed consequences of injections compared with saline (Sprague-Dawley rats; 0.5 mL of 0.25 M BIM subcutaneously vs phosphate-buffered saline, throughout the study): macroscopically similar
- Irritation at injection sites (Sprague-Dawley rats; 0.5 mL of 0.25 M BIM subcutaneously, 1-3 daily injections): no irritation to slight irritation
- Edema scores (Draize) at injection sites (Sprague-Dawley rats; 0.5 mL of 0.25 M BIM subcutaneously, 1-3 daily injections, various time points): 0-2
- Microscopic examination of injection sites (Sprague-Dawley rats; 0.5 mL of 0.25 M BIM subcutaneously, no longer evident by day 4): very minor, clinically insignificant, irritative effect
- Viscosity ([7]; 0.50M BIM, REMICADE ® 222 ± 6 mg/mL, 25° C., pH 7): 71.2 ± 2.9 cP
- Viscosity reduction ([7]; 0.50 M BIM, maximum over the proteins examined (REMICADE and VECTIBIX)): up to 22 fold

Compound: CCCCn1cc[n+](C)c1.CS(=O)(=O)[O-] [BMI Mes, 1-butyl-3-methylimidazolium methanesulfonate]
- Viscosity ([1]; [IL] 0.4 M, [Protein] 214 mg/mL): 36.3 ± 0.2 cP
- Viscosity ([1]; [IL] 0.4 M, [Protein] 229 mg/mL): 69.2 ± 5.2 cP
- Viscosity ([1]; [IL] 0.5 M, [Protein] 221 mg/mL): 46.5 ± 1.7 cP
- Viscosity [1, 10]: 82.0 ± 3.0 cP
- Viscosity ([2]; [IL] 0.40 M, [Protein] 227 mg/mL): 47.8 ± 1.0 cP
- Viscosity ([3]; [IL] 0.4 M, [Protein] 232 mg/mL): 35.2 ± 5.0 cP

Compound: CCCC[N+]1(C)CCCC1.[Cl-] [BMP Chloride, 1-butyl-1-methylpyrrolidinium chloride]
- Viscosity ([1]; [IL] 0.4 M, [Protein] 227 mg/mL): 63.0 ± 8.4 cP
- Viscosity [1, 10]: 60.8 ± 0.1 cP
- Viscosity ([2]; [IL] 0.40 M, [Protein] 210 mg/mL): 55.6 ± 2.0 cP
- Viscosity ([2]; [IL] 0.40 M, [Protein] 244 mg/mL): 99.2 ± 2.2 cP
- Viscosity ([3]; [IL] 0.4 M, [Protein] 249 mg/mL): 42.7 ± 1.9 cP

Compound: palivizumab: humanized mAb against an epitope in the A antigenic site of the F protein of respiratory syncytial virus
- Reduction of the risk of hospitalization due to respiratory syncytial virus infection [8]: 55% and 45%

Compound: vedolizumab: mAb being developed by Millennium Pharmaceuticals for ulcerative colitis and Crohn's disease
- Patients achieving clinical remission [9]: ~60%
